Measured values published in PMC10364322, “Evaluation of chronic drug-induced electrophysiological and cytotoxic effects using human-induced pluripotent stem cell-derived cardiomyocytes (hiPSC-CMs)” (Frontiers in Pharmacology, 2023).
Read-outs that look alike come from different tables or passages of the source.

System: hiPSC-CMs (iCell-Cardiomyocytes^2)
Outline: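 Spontaneous field potentials and impedance recorded by MEA at 37°C, 5% CO2 in hiPSC-CM monolayers (50 K/well, fibronectin-coated), 5-min baseline before compound; final DMSO 0.1%. Values are percent change from baseline, mean ± SD, compared with DMSO by Wilcoxon-Mann Whitney, interpreted against DMSO tolerance intervals.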

## CC(C)(Sc1cc(C(C)(C)C)c(O)c(C(C)(C)C)c1)Sc1cc(C(C)(C)C)c(O)c(C(C)(C)C)c1 [Probucol]
0.3 µM, 2h
  BR (beating rate), % change from baseline: 0±1%
  Beating below threshold, number of observations/total well numbers: 0/5
  Cessation of beating, number of observations/total well numbers: 0/5
  EAD, number of observations/total well numbers: 0/5
  FPD (field-potential duration), % change from baseline: 2.5±1.9%
  FPDc (field-potential duration corrected by beat-rate), % change from baseline: 2.6±1.7%
  Flat T-wave-like, number of observations/total well numbers: 0/5
0.3 µM, 24h
  BR (beating rate), % change from baseline: 4±2%
  Beating below threshold, number of observations/total well numbers: 0/5
  Cessation of beating, number of observations/total well numbers: 0/5
  EAD, number of observations/total well numbers: 0/5
  FPD (field-potential duration), % change from baseline: 2.5±6.9%
  FPDc (field-potential duration corrected by beat-rate), % change from baseline: 3.8±6.8%
  Flat T-wave-like, number of observations/total well numbers: 1/5
0.3 µM, 48h
  BR (beating rate), % change from baseline: -1±1%
  Beating below threshold, number of observations/total well numbers: 0/5
  Cessation of beating, number of observations/total well numbers: 0/5
  EAD, number of observations/total well numbers: 0/5
  FPD (field-potential duration), % change from baseline: 5.1±4.5%
  FPDc (field-potential duration corrected by beat-rate), % change from baseline: 4.5±4.4%
  Flat T-wave-like, number of observations/total well numbers: 0/5
0.3 µM, 72h
  BR (beating rate), % change from baseline: -6±3%
  Beating below threshold, number of observations/total well numbers: 0/5
  Cessation of beating, number of observations/total well numbers: 0/5
  EAD, number of observations/total well numbers: 0/5
  FPD (field-potential duration), % change from baseline: 1.8±4.6%
  FPDc (field-potential duration corrected by beat-rate), % change from baseline: -0.2±4.7%
  Flat T-wave-like, number of observations/total well numbers: 0/5
0.3 µM, 96h
  BR (beating rate), % change from baseline: 0±7%
  Beating below threshold, number of observations/total well numbers: 0/5
  Cessation of beating, number of observations/total well numbers: 0/5
  EAD, number of observations/total well numbers: 0/5
  FPD (field-potential duration), % change from baseline: 2.4±5.7%
  FPDc (field-potential duration corrected by beat-rate), % change from baseline: 2.7±6.2%
  Flat T-wave-like, number of observations/total well numbers: 0/5
1 µM, 2h
  BR (beating rate), % change from baseline: 0±1%
  Beating below threshold, number of observations/total well numbers: 0/4
  Cessation of beating, number of observations/total well numbers: 0/4
  EAD, number of observations/total well numbers: 0/4
  FPD (field-potential duration), % change from baseline: 0.8±4.5%
  FPDc (field-potential duration corrected by beat-rate), % change from baseline: 1.1±4.5%
  Flat T-wave-like, number of observations/total well numbers: 0/4
1 µM, 24h
  BR (beating rate), % change from baseline: 6±1%
  Beating below threshold, number of observations/total well numbers: 0/4
  Cessation of beating, number of observations/total well numbers: 0/4
  EAD, number of observations/total well numbers: 0/4
  FPD (field-potential duration), % change from baseline: 13±11.4%
  FPDc (field-potential duration corrected by beat-rate), % change from baseline: 15.1±11.7%
  Flat T-wave-like, number of observations/total well numbers: 0/4
1 µM, 48h
  BR (beating rate), % change from baseline: 0±2%
  Beating below threshold, number of observations/total well numbers: 0/4
  Cessation of beating, number of observations/total well numbers: 0/4
  EAD, number of observations/total well numbers: 0/4
  FPD (field-potential duration), % change from baseline: 12.6±11.7%
  FPDc (field-potential duration corrected by beat-rate), % change from baseline: 12.5±11.6%
  Flat T-wave-like, number of observations/total well numbers: 0/4
1 µM, 72h
  BR (beating rate), % change from baseline: 0±5%
  Beating below threshold, number of observations/total well numbers: 0/4
  Cessation of beating, number of observations/total well numbers: 0/4
  EAD, number of observations/total well numbers: 0/4
  FPD (field-potential duration), % change from baseline: 8.9±8.5%
  FPDc (field-potential duration corrected by beat-rate), % change from baseline: 8.8±8.8%
  Flat T-wave-like, number of observations/total well numbers: 0/4
1 µM, 96h
  BR (beating rate), % change from baseline: 2±3%
  Beating below threshold, number of observations/total well numbers: 0/4
  Cessation of beating, number of observations/total well numbers: 0/4
  EAD, number of observations/total well numbers: 0/4
  FPD (field-potential duration), % change from baseline: 9.2±9.9%
  FPDc (field-potential duration corrected by beat-rate), % change from baseline: 10.3±10.9%
  Flat T-wave-like, number of observations/total well numbers: 0/4
3 µM, 72h
  BR (beating rate), % change from baseline: 6±4%
  Beating below threshold, number of observations/total well numbers: 0/5
  Cessation of beating, number of observations/total well numbers: 0/5
  EAD, number of observations/total well numbers: 0/5
  FPD (field-potential duration), % change from baseline: 1.7±4.6%
  FPDc (field-potential duration corrected by beat-rate), % change from baseline: 3.6±3.3%
  Flat T-wave-like, number of observations/total well numbers: 0/5
3 µM, 96h
  BR (beating rate), % change from baseline: 14±5 %
  Beating below threshold, number of observations/total well numbers: 0/5
  Cessation of beating, number of observations/total well numbers: 0/5
  EAD, number of observations/total well numbers: 0/5
  FPD (field-potential duration), % change from baseline: -4.1±6.5%
  FPDc (field-potential duration corrected by beat-rate), % change from baseline: 0.1±7%
  Flat T-wave-like, number of observations/total well numbers: 0/5
3 µM, 2h
  BR (beating rate), % change from baseline: 2±4%
  Beating below threshold, number of observations/total well numbers: 0/5
  Cessation of beating, number of observations/total well numbers: 0/5
  EAD, number of observations/total well numbers: 0/5
  FPD (field-potential duration), % change from baseline: 3.7±3.5%
  FPDc (field-potential duration corrected by beat-rate), % change from baseline: 4.4±2.3%
  Flat T-wave-like, number of observations/total well numbers: 0/5
3 µM, 24h
  BR (beating rate), % change from baseline: 7±0%
  Beating below threshold, number of observations/total well numbers: 0/5
  Cessation of beating, number of observations/total well numbers: 0/5
  EAD, number of observations/total well numbers: 0/5
  FPD (field-potential duration), % change from baseline: 8.9±1.5%
  FPDc (field-potential duration corrected by beat-rate), % change from baseline: 11.3±1.4%
  Flat T-wave-like, number of observations/total well numbers: 0/5
3 µM, 48h
  BR (beating rate), % change from baseline: 7±2%
  Beating below threshold, number of observations/total well numbers: 0/5
  Cessation of beating, number of observations/total well numbers: 0/5
  EAD, number of observations/total well numbers: 0/5
  FPD (field-potential duration), % change from baseline: 2.8±2.5%
  FPDc (field-potential duration corrected by beat-rate), % change from baseline: 4.9±2.3%
  Flat T-wave-like, number of observations/total well numbers: 0/5
10 µM, 2h
  BR (beating rate), % change from baseline: 1±2%
  Beating below threshold, number of observations/total well numbers: 0/5
  Cessation of beating, number of observations/total well numbers: 0/5
  EAD, number of observations/total well numbers: 0/5
  FPD (field-potential duration), % change from baseline: 5.5±2.1%
  FPDc (field-potential duration corrected by beat-rate), % change from baseline: 6±2.3%
  Flat T-wave-like, number of observations/total well numbers: 0/5
10 µM, 24h
  BR (beating rate), % change from baseline: 10±3%
  Beating below threshold, number of observations/total well numbers: 0/5
  Cessation of beating, number of observations/total well numbers: 0/5
  EAD, number of observations/total well numbers: 0/5
  FPD (field-potential duration), % change from baseline: 11.3±10%
  FPDc (field-potential duration corrected by beat-rate), % change from baseline: 15.1±11%
  Flat T-wave-like, number of observations/total well numbers: 0/5
10 µM, 48h
  BR (beating rate), % change from baseline: 17±3%
  Beating below threshold, number of observations/total well numbers: 0/5
  Cessation of beating, number of observations/total well numbers: 0/5
  EAD, number of observations/total well numbers: 0/5
  FPD (field-potential duration), % change from baseline: -0.8±13.7%
  FPDc (field-potential duration corrected by beat-rate), % change from baseline: 4.7±14.8%
  Flat T-wave-like, number of observations/total well numbers: 1/5
10 µM, 72h
  BR (beating rate), % change from baseline: 26±7 %
  Beating below threshold, number of observations/total well numbers: 0/5
  Cessation of beating, number of observations/total well numbers: 0/5
  EAD, number of observations/total well numbers: 0/5
  FPD (field-potential duration), % change from baseline: -10.2±17%
  FPDc (field-potential duration corrected by beat-rate), % change from baseline: -2.8±19.3%
  Flat T-wave-like, number of observations/total well numbers: 1/5
10 µM, 96h
  BR (beating rate), % change from baseline: 48±6 %
  Beating below threshold, number of observations/total well numbers: 0/5
  Cessation of beating, number of observations/total well numbers: 0/5
  EAD, number of observations/total well numbers: 0/5
  FPD (field-potential duration), % change from baseline: -14.5±9.4%
  FPDc (field-potential duration corrected by beat-rate), % change from baseline: -2.5±12.4%
  Flat T-wave-like, number of observations/total well numbers: 2/5
All concentrations tested
  prolongation of FPD / FPDc: did not induce a statistically significant prolongation of the FPD
